Measured values from patent publication US20090197856A1, “ANTIVIRAL COMPOUNDS” (Genelabs Technologies, Inc., priority 2007, published 2009).
Where two headings read alike, the source gives them in different places.

Biological target: T1, HCV-NS5b (Hepatitis C virus genotype 1b, UniProt Q9WMX2)
T1 construct: (His)6 (C); made in house; host or cells: XL-1 cells (E. coli), IPTG-inducible plasmid
Assay: HCV-NS5b enzyme assay using homopolymer substrate
Assay type: biochemical
From the text: The coding sequence of NS5b protein was cloned by PCR from pFKI389luc/NS3-3′/ET as described by Lohmann, V., et al. (1999) Science 285, 110-113 using the primers shown on page 266 of WO 2005/012288
The cloned fragment is missing the C terminus 21 amino acid residues. The cloned fragment was inserted into an IPTG-inducible (isopropyl-β-D-thiogalactopyranoside) expression plasmid that provides an epitope tag (His)6 at the carboxy terminus of the protein.
The recombinant enzyme was expressed in XL-1 cells and after induction of expression, the protein was purified using affinity chromatography on a nickel-NTA (nitrilotriacetic acid) column. Storage condition was 10 mM Tris-HCl pH 7.5, 50 mM NaCl, 0.1 mM EDTA (ethylenediaminetetraacetic acid), 1 mM DTT (dithiothreotol), 20% glycerol at −20° C.
The polymerase activity was assayed by measuring incorporation of radiolabeled UTP into a RNA product using a biotinylated, homopolymeric template. The template was formed by annealing adenosine homopolymer to uridine 20-mer capped with a 5′-biotin group (biotin-U^20) in the ratio of 1:4. Typically, the assay mixture (50 μL) contained 25 mM Tris-HCl (pH 7.5), 40 mM KCl, 0.3 mM MgCl2, 0.05 mM EDTA, 0.2 unit/μL Superase RNAse Inhibitor, 5 mM DTT, 30 μM UTP (Uridine triphosphate), including [^3H]-UTP (uridine triphosphate) at 0.4 μCi/μL with final concentration of 1 μM, and 50 nM of homopolymeric template. Test compounds were initially dissolved in 100% DMSO and further diluted in aqueous buffer containing 5% DMSO. Typically, compounds were tested at concentrations between 2 nM and 50 μM. Reactions were started with addition of enzyme and allowed to continue at 30° C. for 90 minutes. Reactions were quenched with 8 μL of 100 mM EDTA and reaction mixtures (30 μL) were transferred to streptavidin-coated scintillation proximity microtiter plates (FlashPlates) and incubated at room temperature overnight. Incorporation of radioactivity was determined by scintillation counting.
Inhibitor IC50 values were determined by adding test compound as ten point, two-fold serial dilutions in 100% DMSO with a final reaction concentration of 5%. IC50 was calculated by plotting the % inhibition against compound concentration and fitting the data to a constrained four parameter sigmoidal curve, equivalent to the “four parameter logistic equation”:
Where Bottom is the minimum Y value, Top is the maximum Y value, and Hillslope is the slope of the linear portion of the semi-log curve. Top and Bottom were constrained to values of 0% and 100%, respectively. These analyses were performed using Graphpad Prism v.4.0 (Graphpad Software, Inc.) in conjunction with DS Accord for EXCEL 6.0 (Accelrys, Microsoft Corp.).
The table below lists the IC50 values of compounds determined using the homopolymer substrates.

[1] = homopolymer substrate, [3H]-UTP incorporation, 30° C., 90 minutes, read-out: IC50

O=C(O)c1ccc2c(C3CCCCC3)c3n(c2c1)CC(CO)Cn1ccc2cccc-3c21 (racemic) [Compound 377]
IC50 [1]: 280 nM

O=C(O)c1ccc2c(C3CCCCC3)c3n(c2c1)CCCCn1cc(CN2CCCCC2)c2cccc-3c21 [Compound 105]
IC50 [1]: 131 nM

O=C(O)c1ccc2c(C3CCCCC3)c3n(c2c1)CCCn1cc(CN2CCOCC2)c2cccc-3c21 [Compound 107]
IC50 [1]: 19 nM

CN(C)Cc1cn2c3c(cccc13)-c1c(C3CCCCC3)c3ccc(C(=O)O)cc3n1CC2 [Compound 108]
IC50 [1]: 83 nM

CC(C)NCc1cn2c3c(cccc13)-c1c(C3CCCCC3)c3ccc(C(=O)O)cc3n1CCC2 [Compound 110]
IC50 [1]: 96 nM

CN(C)Cc1cn2c3c(cccc13)-c1c(C3CCCCC3)c3ccc(C(=O)O)cc3n1CCC2 [Compound 111]
IC50 [1]: 106 nM

CN(C)Cc1cn2c3c(cccc13)-c1c(C3CCCCC3)c3ccc(C(=O)O)cc3n1CCCC2 [Compound 112]
IC50 [1]: 109 nM

O=C(O)c1ccc2c(C3CCCCC3)c3n(c2c1)CCCn1cc(CN2CCC2)c2cccc-3c21 [Compound 113]
IC50 [1]: 84 nM

O=C(O)c1ccc2c(C3CCCCC3)c3n(c2c1)CCCn1cc(C(=O)C(=O)N2CCCCC2)c2cccc-3c21 [Compound 114]
IC50: 89 nM

COC1CCN(Cc2cn3c4c(cccc24)-c2c(C4CCCCC4)c4ccc(C(=O)O)cc4n2CCC3)CC1 [Compound 115]
IC50 [1]: 87 nM

O=C(O)c1ccc2c(C3CCCCC3)c3n(c2c1)CCCn1cc(CN2CCCCO2)c2cccc-3c21 [Compound 116]
IC50 [1]: 138 nM

CC1CCN(Cc2cn3c4c(cccc24)-c2c(C4CCCCC4)c4ccc(C(=O)O)cc4n2CCC3)CC1 [Compound 117]
IC50 [1]: 108 nM

O=C(O)c1ccc2c(C3CCCCC3)c3n(c2c1)CCn1cc(CN2CCCCC2)c2cccc-3c21 [Compound 118]
IC50 [1]: 48 nM

O=C(O)c1ccc2c(C3CCCCC3)c3n(c2c1)CCCn1cc(CN2CCCCC2)c2cccc-3c21 [Compound 119]
IC50 [1]: 114 nM

CCN(CC)Cc1cn2c3c(cccc13)-c1c(C3CCCCC3)c3ccc(C(=O)O)cc3n1CCC2 [Compound 120]
IC50 [1]: 85 nM

O=C(O)c1ccc2c(C3CCCCC3)c3n(c2c1)CCCn1cc(CN2CCCC2)c2cccc-3c21 [Compound 121]
IC50 [1]: 49 nM

O=C(O)c1ccc2c(C3CCCCC3)c3n(c2c1)CCn1cc(CN2CCOCC2)c2cccc-3c21 [Compound 122]
IC50 [1]: 51 nM

CN1CCN(C(=O)C(=O)c2cn3c4c(cccc24)-c2c(C4CCCCC4)c4ccc(C(=O)O)cc4n2CCC3)CC1 [Compound 123]
IC50: 155 nM

COC1CCCN(Cc2cn3c4c(cccc24)-c2c(C4CCCCC4)c4ccc(C(=O)O)cc4n2CCC3)C1 (centres unmarked) [Compound 124]
IC50 [1]: 114 nM

CN1CCN(Cc2cn3c4c(cccc24)-c2c(C4CCCCC4)c4ccc(C(=O)O)cc4n2CCC3)CC1 [Compound 125]
IC50 [1]: 68 nM

O=C(O)c1ccc2c(C3CCCCC3)c3n(c2c1)CCCn1cc(CN2CC[C@@H](F)C2)c2cccc-3c21 [Compound 126]
IC50 [1]: 96 nM

O=C(O)c1ccc2c(C3CCCCC3)c3n(c2c1)CCCn1cc(CN2CCC(F)(F)CC2)c2cccc-3c21 [Compound 127]
IC50 [1]: 290 nM

O=C(O)c1ccc2c(C3CCCCC3)c3n(c2c1)CCCn1cc(CN2CCSCC2)c2cccc-3c21 [Compound 128]
IC50 [1]: 101 nM

CCN(C)Cc1cn2c3c(cccc13)-c1c(C3CCCCC3)c3ccc(C(=O)O)cc3n1CCC2 [Compound 129]
IC50 [1]: 96 nM

CC1CCCN(Cc2cn3c4c(cccc24)-c2c(C4CCCCC4)c4ccc(C(=O)O)cc4n2CCC3)C1 (centres unmarked) [Compound 130]
IC50 [1]: 111 nM

O=C(O)c1ccc2c(C3CCCCC3)c3n(c2c1)CCCn1cc(CNC2CC2)c2cccc-3c21 [Compound 131]
IC50 [1]: 208 nM

CCC(CC)NCc1cn2c3c(cccc13)-c1c(C3CCCCC3)c3ccc(C(=O)O)cc3n1CCC2 [Compound 132]
IC50 [1]: 223 nM

O=C(O)c1ccc2c(C3CCCCC3)c3n(c2c1)CCCn1cc(CCN2CCCCC2)c2cccc-3c21 [Compound 204]
IC50 [1]: 118 nM

CN(C)CCc1cn2c3c(cccc13)-c1c(C3CCCCC3)c3ccc(C(=O)O)cc3n1CCC2 [Compound 214]
IC50 [1]: 278 nM
